Data published in article PMC12090182, “Repurposing of the RIPK1-Selective Benzo[1,4]oxazepin-4-one Scaffold for the Development of a Type III LIMK1/2 Inhibitor” (ACS Chemical Biology, 2025).

How the values were obtained:
FLT3(K663Q) = FLT3(K663Q) (Homo sapiens, UniProt P36888, K663Q); assay: biochemical; assay type: binding; conditions: compound concentration 100 nM; Entrez FLT3; read-out: Percent Control
EGFR(T790M) = EGFR(T790M) (Homo sapiens, UniProt P00533, T790M); assay: biochemical; assay type: binding; conditions: compound concentration 100 nM; Entrez EGFR; read-out: Percent Control
EGFR(T790M), sequence (P00533 25-1210 T790M): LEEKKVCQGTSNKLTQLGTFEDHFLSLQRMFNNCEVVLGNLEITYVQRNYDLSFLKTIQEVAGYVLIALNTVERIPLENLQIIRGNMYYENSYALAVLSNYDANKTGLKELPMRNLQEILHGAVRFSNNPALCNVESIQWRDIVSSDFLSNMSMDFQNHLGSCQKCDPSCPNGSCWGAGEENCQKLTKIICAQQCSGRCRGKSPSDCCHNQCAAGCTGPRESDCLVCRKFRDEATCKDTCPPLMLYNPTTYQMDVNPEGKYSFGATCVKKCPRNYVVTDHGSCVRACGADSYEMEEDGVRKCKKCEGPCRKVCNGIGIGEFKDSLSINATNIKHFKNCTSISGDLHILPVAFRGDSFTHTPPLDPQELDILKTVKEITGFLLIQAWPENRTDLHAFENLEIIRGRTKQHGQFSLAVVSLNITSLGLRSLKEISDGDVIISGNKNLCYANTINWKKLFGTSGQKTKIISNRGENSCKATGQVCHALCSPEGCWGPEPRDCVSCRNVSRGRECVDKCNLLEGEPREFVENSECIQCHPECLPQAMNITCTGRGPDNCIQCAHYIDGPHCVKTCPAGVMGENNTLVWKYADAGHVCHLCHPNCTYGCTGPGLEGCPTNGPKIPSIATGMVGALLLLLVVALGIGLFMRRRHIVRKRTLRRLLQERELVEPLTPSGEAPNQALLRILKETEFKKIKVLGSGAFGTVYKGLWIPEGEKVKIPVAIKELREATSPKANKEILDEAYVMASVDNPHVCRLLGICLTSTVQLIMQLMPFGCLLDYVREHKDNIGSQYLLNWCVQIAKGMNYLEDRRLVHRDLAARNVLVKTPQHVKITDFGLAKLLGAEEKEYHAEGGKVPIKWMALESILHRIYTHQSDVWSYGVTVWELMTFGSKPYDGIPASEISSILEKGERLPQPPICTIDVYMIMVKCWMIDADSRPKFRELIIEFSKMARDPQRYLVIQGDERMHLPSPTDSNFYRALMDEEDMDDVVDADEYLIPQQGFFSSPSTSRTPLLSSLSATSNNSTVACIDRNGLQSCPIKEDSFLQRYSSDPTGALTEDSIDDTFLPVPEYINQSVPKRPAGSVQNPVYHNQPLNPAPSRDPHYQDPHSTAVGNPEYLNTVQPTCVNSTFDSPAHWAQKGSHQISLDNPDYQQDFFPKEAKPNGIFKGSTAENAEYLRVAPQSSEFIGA

PIK3CA(M1043I) = PIK3CA(M1043I) (Homo sapiens, UniProt P42336, M1043I); assay: biochemical; assay type: binding; conditions: read-out: Percent Control
FLT3(D835H) = FLT3(D835H) (Homo sapiens, UniProt P36888, D835H); assay: biochemical; assay type: binding; conditions: compound concentration 100 nM; Entrez FLT3; read-out: Percent Control
[1] = target: EGFR(L747-E749del, A750P) (Homo sapiens, UniProt P00533, A750P/DEL747-749); assay: biochemical; assay type: binding; conditions: read-out: Percent Control
EGFR(L747-E749del, A750P), sequence (P00533 other isoform, or with tags, fused parts or gaps DEL747-749/A750P): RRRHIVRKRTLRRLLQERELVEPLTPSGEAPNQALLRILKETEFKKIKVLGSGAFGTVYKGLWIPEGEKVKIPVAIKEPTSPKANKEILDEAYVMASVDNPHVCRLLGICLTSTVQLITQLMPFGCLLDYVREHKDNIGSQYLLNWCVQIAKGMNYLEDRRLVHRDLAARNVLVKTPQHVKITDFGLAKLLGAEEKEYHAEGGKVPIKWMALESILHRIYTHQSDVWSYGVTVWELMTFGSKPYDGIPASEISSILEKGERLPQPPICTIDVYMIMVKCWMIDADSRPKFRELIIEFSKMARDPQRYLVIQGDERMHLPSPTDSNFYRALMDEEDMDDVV

[2] = target: ABL1(T315I)-phosphorylated (Homo sapiens, UniProt P00519, T315I); assay: biochemical; assay type: binding; conditions: compound concentration 100 nM; Entrez ABL1; read-out: Percent Control
MAP4K3 = MAP4K3 (Homo sapiens, UniProt Q8IVH8); assay type: cell-based; conditions: HEK-293T; 1 μM inhibitor, HEK293T cells
Procedure, shortened: (§1)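 Live-cell NanoBRET: HEK293T, 20 h expression, Tracer K10 (kit-recommended conc.), test compound 1 μM single point; luminescence 450/610 nm; % occupancy per kinase.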

SRMS = SRMS (Homo sapiens, UniProt Q9H3Y6); assay type: cell-based; conditions: HEK-293T; 1 μM inhibitor, HEK293T cells
SRMS, sequence (Q9H3Y6 whole entry): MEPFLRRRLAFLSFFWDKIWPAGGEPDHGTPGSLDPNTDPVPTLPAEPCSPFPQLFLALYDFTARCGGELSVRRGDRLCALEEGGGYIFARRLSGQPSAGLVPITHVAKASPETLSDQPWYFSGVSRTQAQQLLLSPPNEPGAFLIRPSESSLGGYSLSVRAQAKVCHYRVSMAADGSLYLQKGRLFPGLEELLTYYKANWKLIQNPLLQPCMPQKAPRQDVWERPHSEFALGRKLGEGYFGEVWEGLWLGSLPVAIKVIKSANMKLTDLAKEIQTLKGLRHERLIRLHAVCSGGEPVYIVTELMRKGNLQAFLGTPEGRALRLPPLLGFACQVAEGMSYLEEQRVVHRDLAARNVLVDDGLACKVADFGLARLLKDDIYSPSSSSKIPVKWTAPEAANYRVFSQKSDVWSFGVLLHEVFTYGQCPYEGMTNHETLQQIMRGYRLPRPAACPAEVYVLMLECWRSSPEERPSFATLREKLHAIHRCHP
Procedure, shortened: as §1

CDK4 = CDK4 (Homo sapiens, UniProt P11802); assay type: cell-based; conditions: HEK-293T; 1 μM inhibitor, HEK293T cells
Procedure, shortened: as §1

MAPK8 = MAPK8 (Homo sapiens, UniProt P45983); assay type: cell-based; conditions: HEK-293T; 1 μM inhibitor, HEK293T cells
Procedure, shortened: as §1

TNK1 = TNK1 (Homo sapiens, UniProt Q13470); assay type: cell-based; conditions: HEK-293T; 1 μM inhibitor, HEK293T cells
Procedure, shortened: as §1

HIPK4 = HIPK4 (Homo sapiens, UniProt Q8NE63); assay type: cell-based; conditions: HEK-293T; 1 μM inhibitor, HEK293T cells
Procedure, shortened: as §1

CDK5 = CDK5 (Homo sapiens, UniProt Q00535); assay type: cell-based; conditions: HEK-293T; 1 μM inhibitor, HEK293T cells
Procedure, shortened: as §1

CDK14 = CDK14 (Homo sapiens, UniProt O94921); assay type: cell-based; conditions: HEK-293T; 1 μM inhibitor, HEK293T cells
Procedure, shortened: as §1

CAMK2A = CAMK2A (Homo sapiens, UniProt Q9UQM7); assay type: cell-based; conditions: HEK-293T; 1 μM inhibitor, HEK293T cells
Procedure, shortened: as §1

MARK4 = MARK4 (Homo sapiens, UniProt Q96L34); assay type: cell-based; conditions: HEK-293T; 1 μM inhibitor, HEK293T cells
Procedure, shortened: as §1

MAP3K19 = MAP3K19 (Homo sapiens, UniProt Q56UN5); assay type: cell-based; conditions: HEK-293T; 1 μM inhibitor, HEK293T cells
Procedure, shortened: as §1

AKT2 = AKT2 (Homo sapiens, UniProt P31751); assay type: cell-based; conditions: HEK-293T; 1 μM inhibitor, HEK293T cells
Procedure, shortened: as §1

SNF1LK2 = SNF1LK2 (Homo sapiens, UniProt Q9H0K1); assay type: cell-based; conditions: HEK-293T; 1 μM inhibitor, HEK293T cells
Procedure, shortened: as §1

PTK2B = PTK2B (Homo sapiens, UniProt Q14289); assay type: cell-based; conditions: HEK-293T; 1 μM inhibitor, HEK293T cells
PTK2B, sequence (Q14289 whole entry): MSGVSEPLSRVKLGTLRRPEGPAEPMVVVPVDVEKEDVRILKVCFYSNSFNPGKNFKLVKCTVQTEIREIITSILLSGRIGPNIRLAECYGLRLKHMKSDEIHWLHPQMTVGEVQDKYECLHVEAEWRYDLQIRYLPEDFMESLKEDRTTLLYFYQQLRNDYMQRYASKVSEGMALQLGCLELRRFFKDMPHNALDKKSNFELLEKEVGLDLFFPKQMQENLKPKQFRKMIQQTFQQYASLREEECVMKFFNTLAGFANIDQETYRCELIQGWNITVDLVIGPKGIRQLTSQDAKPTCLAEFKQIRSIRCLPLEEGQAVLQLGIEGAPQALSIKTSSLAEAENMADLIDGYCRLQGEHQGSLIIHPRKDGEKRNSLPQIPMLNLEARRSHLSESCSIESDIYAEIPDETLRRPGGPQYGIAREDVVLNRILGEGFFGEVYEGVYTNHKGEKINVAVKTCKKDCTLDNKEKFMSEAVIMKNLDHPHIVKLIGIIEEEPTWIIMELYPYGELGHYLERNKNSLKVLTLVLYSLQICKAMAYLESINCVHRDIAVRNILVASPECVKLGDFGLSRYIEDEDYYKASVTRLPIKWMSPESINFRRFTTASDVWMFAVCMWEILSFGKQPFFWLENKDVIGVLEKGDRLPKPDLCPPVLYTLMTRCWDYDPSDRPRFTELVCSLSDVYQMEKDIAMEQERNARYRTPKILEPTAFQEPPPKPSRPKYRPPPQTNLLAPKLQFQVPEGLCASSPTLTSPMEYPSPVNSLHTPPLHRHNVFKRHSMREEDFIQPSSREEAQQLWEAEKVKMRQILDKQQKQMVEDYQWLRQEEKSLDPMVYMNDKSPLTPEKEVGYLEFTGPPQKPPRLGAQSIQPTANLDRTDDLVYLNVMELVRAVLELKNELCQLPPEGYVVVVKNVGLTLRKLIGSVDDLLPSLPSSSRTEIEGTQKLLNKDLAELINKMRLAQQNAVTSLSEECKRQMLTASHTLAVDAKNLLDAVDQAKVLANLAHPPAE
Procedure, shortened: as §1

MAP3K3 = MAP3K3 (Homo sapiens, UniProt Q99759); assay type: cell-based; conditions: HEK-293T; 1 μM inhibitor, HEK293T cells
Procedure, shortened: as §1

ULK2 = ULK2 (Homo sapiens, UniProt Q8IYT8); assay type: cell-based; conditions: HEK-293T; 1 μM inhibitor, HEK293T cells
Procedure, shortened: as §1

RIOK2 = RIOK2 (Homo sapiens, UniProt Q9BVS4); assay type: cell-based; conditions: HEK-293T; 1 μM inhibitor, HEK293T cells
Procedure, shortened: as §1

IGF1R = IGF1R (Homo sapiens, UniProt P08069); assay type: cell-based; conditions: HEK-293T; 1 μM inhibitor, HEK293T cells
Procedure, shortened: as §1

CDKL1 = CDKL1 (Homo sapiens, UniProt Q00532); assay type: cell-based; conditions: HEK-293T; 1 μM inhibitor, HEK293T cells
Procedure, shortened: as §1

NTRK1 = NTRK1 (Homo sapiens, UniProt P04629); assay type: cell-based; conditions: HEK-293T; 1 μM inhibitor, HEK293T cells
NTRK1, sequence (P04629 33-796): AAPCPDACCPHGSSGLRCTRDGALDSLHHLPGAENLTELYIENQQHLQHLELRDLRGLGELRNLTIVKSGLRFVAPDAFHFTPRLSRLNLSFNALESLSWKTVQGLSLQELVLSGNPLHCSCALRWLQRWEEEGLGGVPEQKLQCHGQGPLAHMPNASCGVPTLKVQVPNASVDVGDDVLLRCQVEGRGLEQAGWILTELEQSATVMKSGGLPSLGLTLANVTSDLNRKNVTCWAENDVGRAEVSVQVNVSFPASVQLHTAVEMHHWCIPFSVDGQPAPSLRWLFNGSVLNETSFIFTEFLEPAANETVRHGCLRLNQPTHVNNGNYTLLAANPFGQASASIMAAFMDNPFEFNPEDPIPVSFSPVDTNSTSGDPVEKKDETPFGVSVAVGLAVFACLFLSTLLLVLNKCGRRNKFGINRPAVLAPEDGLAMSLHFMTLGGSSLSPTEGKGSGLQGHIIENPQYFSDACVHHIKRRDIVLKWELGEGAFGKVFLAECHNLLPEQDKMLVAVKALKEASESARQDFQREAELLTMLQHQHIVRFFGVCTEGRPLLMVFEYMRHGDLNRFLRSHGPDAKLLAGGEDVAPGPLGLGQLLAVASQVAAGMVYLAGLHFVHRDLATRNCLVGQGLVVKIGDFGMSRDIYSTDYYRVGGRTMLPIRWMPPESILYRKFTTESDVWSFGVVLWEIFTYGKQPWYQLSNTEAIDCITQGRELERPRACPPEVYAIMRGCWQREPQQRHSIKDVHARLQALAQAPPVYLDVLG
Procedure, shortened: as §1

PHKG2 = PHKG2 (Homo sapiens, UniProt P15735); assay type: cell-based; conditions: HEK-293T; 1 μM inhibitor, HEK293T cells
Procedure, shortened: as §1

[3] = target: ABL1(F317L)-phosphorylated (Homo sapiens, UniProt P00519, F317L); assay: biochemical; assay type: binding; conditions: read-out: Percent Control
[4] = target: ABL1(F317I)-phosphorylated (Homo sapiens, UniProt P00519, F317I); assay: biochemical; assay type: binding; conditions: compound concentration 100 nM; Entrez ABL1; read-out: Percent Control
RET(V804L) = RET(V804L) (Homo sapiens, UniProt P07949, V804L); assay: biochemical; assay type: binding; conditions: compound concentration 100 nM; Entrez RET; read-out: Percent Control
RET(V804L), sequence (P07949 29-1114 V804L): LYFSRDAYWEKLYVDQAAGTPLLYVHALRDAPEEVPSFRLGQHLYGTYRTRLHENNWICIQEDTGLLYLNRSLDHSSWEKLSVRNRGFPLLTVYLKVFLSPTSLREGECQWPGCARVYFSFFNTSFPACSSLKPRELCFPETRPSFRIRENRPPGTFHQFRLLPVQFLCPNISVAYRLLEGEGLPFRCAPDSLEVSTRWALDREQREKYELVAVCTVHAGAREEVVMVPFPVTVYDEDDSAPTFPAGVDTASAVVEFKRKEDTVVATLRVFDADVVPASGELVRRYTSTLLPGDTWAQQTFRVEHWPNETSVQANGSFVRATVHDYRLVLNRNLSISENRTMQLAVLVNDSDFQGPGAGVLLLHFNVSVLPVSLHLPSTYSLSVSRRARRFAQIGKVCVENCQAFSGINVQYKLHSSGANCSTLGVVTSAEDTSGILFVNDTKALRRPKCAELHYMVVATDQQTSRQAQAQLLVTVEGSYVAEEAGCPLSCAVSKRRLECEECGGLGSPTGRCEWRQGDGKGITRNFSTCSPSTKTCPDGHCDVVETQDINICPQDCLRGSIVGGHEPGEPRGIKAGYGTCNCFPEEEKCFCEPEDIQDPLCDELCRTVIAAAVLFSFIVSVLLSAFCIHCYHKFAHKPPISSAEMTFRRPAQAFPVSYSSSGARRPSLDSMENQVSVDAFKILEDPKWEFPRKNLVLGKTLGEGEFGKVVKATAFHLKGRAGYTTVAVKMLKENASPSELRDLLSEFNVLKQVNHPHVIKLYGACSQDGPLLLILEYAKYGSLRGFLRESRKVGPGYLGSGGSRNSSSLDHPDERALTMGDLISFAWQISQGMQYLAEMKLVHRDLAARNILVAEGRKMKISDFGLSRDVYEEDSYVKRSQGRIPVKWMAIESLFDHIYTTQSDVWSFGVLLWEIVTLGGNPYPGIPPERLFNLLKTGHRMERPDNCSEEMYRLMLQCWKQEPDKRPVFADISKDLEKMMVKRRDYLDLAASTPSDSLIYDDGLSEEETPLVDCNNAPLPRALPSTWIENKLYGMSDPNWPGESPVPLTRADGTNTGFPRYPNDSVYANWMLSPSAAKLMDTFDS

FLT3(ITD,D835V) = assay type: binding; conditions: 1000 nM
KIT(V559D) = KIT(V559D) (Homo sapiens, UniProt P10721, V559D); assay: biochemical; assay type: binding; conditions: 1000 nM, read-out: Percent Control

CN1C(=O)[C@@H](N2CCc3c(nn(Cc4ccccc4)c3C(N)=O)C2=O)COc2cc(Cl)ccc21 [Compound 10, (S)-2-benzyl-6-(8-chloro-5-methyl-4-oxo-2,3,4,5-tetrahydrobenzo[b][1,4]oxazepin-3-yl)-7-oxo-4,5,6,7-tetrahydro-2H-pyrazolo[3,4-c]pyridine-3-carboxamide]
remaining activity at 0.1 µM (FLT3(K663Q)): 100%
remaining activity at 0.1 µM (EGFR(T790M)): 100%
remaining activity at 1 µM (PIK3CA(M1043I)): 87%
remaining activity at 0.1 µM (FLT3(D835H)): 84%
remaining activity at 1 µM [1]: 100%
remaining activity at 0.1 µM [2]: 72%
receptor occupancy at 1 µM (MAP4K3): -3.75%
receptor occupancy at 1 µM (SRMS): 10.1%
receptor occupancy at 1 µM (CDK4): -9.98%
receptor occupancy at 1 µM (MAPK8): -11.5%
receptor occupancy at 1 µM (TNK1): -2.13%
receptor occupancy at 1 µM (HIPK4): 1.53%
receptor occupancy at 1 µM (CDK5): -9.43%
receptor occupancy at 1 µM (CDK14): 4.07%
receptor occupancy at 1 µM (CAMK2A): -6.57%
receptor occupancy at 1 µM (MARK4): 8.31%
receptor occupancy at 1 µM (MAP3K19): 10.7%
receptor occupancy at 1 µM (AKT2): -1.95%
receptor occupancy at 1 µM (SNF1LK2): 4.84%
receptor occupancy at 1 µM (PTK2B): -1.12%
receptor occupancy at 1 µM (MAP3K3): 5.83%
receptor occupancy at 1 µM (ULK2): 2.12%
receptor occupancy at 1 µM (RIOK2): -2.88%
receptor occupancy at 1 µM (IGF1R): -7.01%
receptor occupancy at 1 µM (CDKL1): 12.6%
receptor occupancy at 1 µM (NTRK1): 0.821%
receptor occupancy at 1 µM (PHKG2): -1.01%
remaining activity at 1 µM [3]: 100%
remaining activity at 0.1 µM [4]: 91%
remaining activity at 0.1 µM (RET(V804L)): 84%
Percent Control (FLT3(ITD,D835V)): 81%
remaining activity at 1 µM (KIT(V559D)): 85%
